Patent US9266905B2, “Color material and method for producing the same” (DAI NIPPON PRINTING CO., LTD., priority 2011, dated 2016)

How the values were obtained:
[1] = Measurement of decomposition point (TG-DTA); assay type: physicochemical; settings: TG-DTA up to 800° C. at 10° C./minute, extrapolation temperature of the peak of the TG curve
Procedure: About 5 mg of each of color materials A to S of Examples 1 to 9 and Comparative examples 1 to 10, was put in a quartz pan, and measured by means of a differential thermogravimetric analyzer (TG-DTA) (product name; TG8120; manufactured by: Rigaku Corporation) up to 800° C. at a heating rate of 10° C./minute, placing alumina on the quartz pan as a reference. The extrapolation temperature of the peak of the thus-obtained TG curve was used as the decomposition point. The temperature of the decomposition point can be used as an indicator of heat resistance.

[2] = Measurement of thermal stability (weight reduction rate, TG-DTA); assay type: physicochemical; settings: heated to 230° C. at 10° C./minute, kept 60 minutes at 230° C.
Procedure: About 5 mg of each of color materials A to S of Examples 1 to 9 and Comparative examples 1 to 10, was put in a quartz pan and heated up to 230° C. at a heating rate of 10° C./minute, placing alumina on the quartz pan as a reference, by means of a differential thermogravimetric analyzer (TG-DTA) (product name; TG8120; manufactured by: Rigaku Corporation). After reaching 230° C., the temperature was kept for 60 minutes at 230° C. Then, a weight reduction rate was measured. The weight reduction rate was calculated by the following formula and can be used as an indicator of heat resistance. Weight reduction rate=(weight before heating−weight after heating)/weight before heating×100(%)

CCNc1ccc(C(=C2C=CC(=[N+](CC)CC)C=C2)c2ccc(N(CC)CC)cc2)c2ccccc12 [Color material Q]
Decomposition point ([1]; listed as Q): 258 °C
Weight reduction rate ([2]; listed as Q): −30.1%

CCN(CC)c1ccc(C(=C2C=CC(=[N+](CC)CC)C=C2)c2ccc(NCc3ccc(CNc4ccc(C(=C5C=CC(=[N+](CC)CC)C=C5)c5ccc(N(CC)CC)cc5)c5ccccc45)cc3)c3ccccc23)cc1 [Color material B]
Decomposition point ([1]; listed as B): 258 °C
Weight reduction rate ([2]; listed as B): −10.7%

CCN(CC)c1ccc(C(=C2C=CC(=[N+](CC)CC)C=C2)c2ccc(NCc3ccc(CNc4ccc(C(=C5C=CC(=[N+](CC)CC)C=C5)c5ccc(N(CC)CC)cc5)c5ccccc45)cc3)c3ccccc23)cc1 [Color material A]
Decomposition point ([1]; listed as A): 253 °C
Weight reduction rate ([2]; listed as A): −19.1%

CCNc1ccc(C(=C2C=CC(=[N+](CC)CC)C=C2)c2ccc(N(CC)CC)cc2)c2ccccc12 [Color material R]
Decomposition point ([1]; listed as R): 259 °C
Weight reduction rate ([2]; listed as R): −30.5%

CCNc1ccc(C(=C2C=CC(=[N+](CC)CC)C=C2)c2ccc(N(CC)CC)cc2)c2ccccc12 [Color material N]
Decomposition point ([1]; listed as N): 251 °C
Weight reduction rate ([2]; listed as N): −38.3%

CCNc1ccc(C(=C2C=CC(=[N+](CC)CC)C=C2)c2ccc(N(CC)CC)cc2)c2ccccc12 [Color material K]
Decomposition point ([1]; listed as K): 237 °C
Weight reduction rate ([2]; listed as K): −32.8%

CCN(CC)c1ccc(C(=C2C=CC(=[N+](CC)CC)C=C2)c2ccc(NCc3ccc(CNc4ccc(C(=C5C=CC(=[N+](CC)CC)C=C5)c5ccc(N(CC)CC)cc5)c5ccccc45)cc3)c3ccccc23)cc1 [Color material J]
Decomposition point ([1]; listed as J): 248 °C
Weight reduction rate ([2]; listed as J): −35.1%

CCNc1ccc(C(=C2C=CC(=[N+](CC)CC)C=C2)c2ccc(N(CC)CC)cc2)c2ccccc12 [Color material L]
Decomposition point ([1]; listed as L): 241 °C
Weight reduction rate ([2]; listed as L): −31.8%
